Measurements: article PMC11879040, “Advancing systemic toxicity risk assessment: Evaluation of a NAM-based toolbox approach” (Toxicological Sciences, 2024)
Where two headings read alike, the source gives them in different places.

Legend:
[1] = biological target: T1, Monoamine oxidase type A, MAOA (r) (Rattus norvegicus, UniProt P21396); assay: IPP MAOA binding (antagonist radioligand); conditions: IPP screening at 10 uM; control clorgyline
T1 sequence (P21396 1-526): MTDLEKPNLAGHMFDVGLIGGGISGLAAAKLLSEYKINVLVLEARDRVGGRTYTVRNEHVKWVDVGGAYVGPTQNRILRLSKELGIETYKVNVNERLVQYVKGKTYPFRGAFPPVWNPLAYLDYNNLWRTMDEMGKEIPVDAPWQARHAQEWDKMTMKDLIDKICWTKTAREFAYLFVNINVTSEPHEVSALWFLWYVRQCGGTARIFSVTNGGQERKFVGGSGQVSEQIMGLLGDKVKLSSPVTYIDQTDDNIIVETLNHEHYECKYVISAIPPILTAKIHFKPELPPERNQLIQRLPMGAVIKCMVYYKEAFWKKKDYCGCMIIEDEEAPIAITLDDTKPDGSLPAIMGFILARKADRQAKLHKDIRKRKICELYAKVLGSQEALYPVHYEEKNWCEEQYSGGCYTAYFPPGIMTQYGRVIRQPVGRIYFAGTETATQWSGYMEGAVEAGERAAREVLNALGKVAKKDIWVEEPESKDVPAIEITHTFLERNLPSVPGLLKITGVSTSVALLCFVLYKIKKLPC

[2] = biological target: Acetylcholinesterase, ACHE (h) (Homo sapiens, UniProt P22303); format: biochemical; conditions: control galanthamine
Sequence of Acetylcholinesterase, ACHE (h) (P22303 32-614): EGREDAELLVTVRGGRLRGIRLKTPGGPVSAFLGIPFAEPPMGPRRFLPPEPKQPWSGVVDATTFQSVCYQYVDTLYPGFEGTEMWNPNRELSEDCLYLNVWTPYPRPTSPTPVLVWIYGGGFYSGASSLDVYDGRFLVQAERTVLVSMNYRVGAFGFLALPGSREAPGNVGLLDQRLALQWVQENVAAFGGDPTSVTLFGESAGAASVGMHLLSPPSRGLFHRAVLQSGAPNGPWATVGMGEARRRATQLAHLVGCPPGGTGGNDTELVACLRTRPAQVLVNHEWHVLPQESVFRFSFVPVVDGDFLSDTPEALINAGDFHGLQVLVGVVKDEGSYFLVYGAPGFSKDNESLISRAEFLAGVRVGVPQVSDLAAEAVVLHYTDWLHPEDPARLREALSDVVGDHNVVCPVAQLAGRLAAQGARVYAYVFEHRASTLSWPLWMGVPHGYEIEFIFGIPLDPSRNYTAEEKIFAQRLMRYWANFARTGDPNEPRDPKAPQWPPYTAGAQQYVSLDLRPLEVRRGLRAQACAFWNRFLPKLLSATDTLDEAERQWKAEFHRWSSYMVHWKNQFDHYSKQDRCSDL

[3] = biological target: Cannabinoid receptor 1, CNR1 (h) (Homo sapiens, UniProt P21554); format: binding; conditions: control CP 55940
Sequence of Cannabinoid receptor 1, CNR1 (h) (P21554 whole entry): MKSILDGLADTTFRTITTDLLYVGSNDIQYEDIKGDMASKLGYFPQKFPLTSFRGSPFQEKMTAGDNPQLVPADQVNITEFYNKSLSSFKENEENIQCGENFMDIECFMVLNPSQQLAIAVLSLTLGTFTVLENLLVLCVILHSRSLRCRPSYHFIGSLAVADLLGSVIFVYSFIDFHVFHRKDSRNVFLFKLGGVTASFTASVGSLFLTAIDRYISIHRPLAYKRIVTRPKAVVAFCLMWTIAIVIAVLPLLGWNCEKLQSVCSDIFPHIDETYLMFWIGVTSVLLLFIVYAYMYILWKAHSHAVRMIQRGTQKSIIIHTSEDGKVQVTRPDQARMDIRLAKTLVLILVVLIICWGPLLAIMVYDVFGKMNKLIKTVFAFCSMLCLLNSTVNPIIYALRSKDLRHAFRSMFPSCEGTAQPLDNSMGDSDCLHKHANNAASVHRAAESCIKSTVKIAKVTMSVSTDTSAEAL

[4] = biological target: T2, Cholecystokinin receptor type A, CCKAR (h) (Homo sapiens, UniProt P32238); assay: IPP CCKAR binding (agonist radioligand); conditions: control CCK-8s
T2 sequence (P32238 1-428): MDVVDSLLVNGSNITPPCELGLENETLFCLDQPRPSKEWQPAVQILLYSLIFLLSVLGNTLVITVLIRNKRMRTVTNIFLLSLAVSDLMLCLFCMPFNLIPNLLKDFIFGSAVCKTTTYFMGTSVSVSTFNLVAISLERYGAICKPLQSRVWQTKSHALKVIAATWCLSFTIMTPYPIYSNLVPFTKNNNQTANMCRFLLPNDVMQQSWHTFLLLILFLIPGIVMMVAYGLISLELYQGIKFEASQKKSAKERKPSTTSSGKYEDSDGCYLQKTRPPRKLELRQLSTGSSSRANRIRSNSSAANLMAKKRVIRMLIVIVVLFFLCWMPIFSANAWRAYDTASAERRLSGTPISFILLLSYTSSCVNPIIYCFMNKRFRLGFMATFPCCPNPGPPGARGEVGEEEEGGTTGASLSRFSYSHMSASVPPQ

[5] = biological target: T3, Angiotensin II receptor Type-1, AGTR1 (h) (Homo sapiens, UniProt P30556); assay: IPP AGTR1 binding; conditions: ligand/control Saralasin
T3 construct: purchased Eurofins Cerep (SafetyScreen44-based IPP panel)
T3 sequence (P30556 1-359): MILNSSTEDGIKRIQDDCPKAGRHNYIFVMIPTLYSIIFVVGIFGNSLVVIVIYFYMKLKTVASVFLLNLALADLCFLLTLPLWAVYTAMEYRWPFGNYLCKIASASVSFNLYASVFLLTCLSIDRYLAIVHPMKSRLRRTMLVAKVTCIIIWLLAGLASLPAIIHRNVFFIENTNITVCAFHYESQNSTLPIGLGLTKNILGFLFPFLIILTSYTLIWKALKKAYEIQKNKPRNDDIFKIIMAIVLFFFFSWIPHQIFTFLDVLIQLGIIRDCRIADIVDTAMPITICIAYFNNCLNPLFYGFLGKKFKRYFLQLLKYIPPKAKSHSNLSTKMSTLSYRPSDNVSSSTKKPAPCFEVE

HepG2 cells = assay: Cell stress panel (CSP), 24 h, 8 concentrations, BIFROST global PoD; format: cell-based
Method: Compounds were tested using the previously developed cell stress panel ([Hatherell et al. 2020]) and the expanded biomarker panel outlined in Middleton et al. HepG2 cells were treated with all compounds for 24 h across 8 concentrations prior to biomarker analysis. The same plate layout and number of replicates (3 biological and 2 technical) were used as previously for each assay within the panel.

[6] = biological target: T4, Alpha-1A adrenergic receptor, ADRA1A (h) (Homo sapiens, UniProt P35348); conditions: control WB 4101
T4 sequence (P35348 1-466): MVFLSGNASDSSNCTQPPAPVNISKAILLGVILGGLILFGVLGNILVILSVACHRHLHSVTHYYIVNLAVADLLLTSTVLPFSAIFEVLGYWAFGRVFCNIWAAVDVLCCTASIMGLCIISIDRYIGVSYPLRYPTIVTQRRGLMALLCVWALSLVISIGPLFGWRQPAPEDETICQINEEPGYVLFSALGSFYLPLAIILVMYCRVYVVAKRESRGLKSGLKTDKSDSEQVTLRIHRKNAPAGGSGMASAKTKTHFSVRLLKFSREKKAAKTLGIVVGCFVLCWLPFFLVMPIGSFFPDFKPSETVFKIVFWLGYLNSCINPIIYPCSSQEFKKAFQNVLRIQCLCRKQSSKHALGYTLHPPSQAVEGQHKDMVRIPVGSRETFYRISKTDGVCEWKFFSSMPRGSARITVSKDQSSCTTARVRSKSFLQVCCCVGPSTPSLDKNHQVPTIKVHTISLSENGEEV

[7] = biological target: T5, 5-hydroxytryptamine receptor 3A, HTR3A (h) (Homo sapiens, UniProt P46098); conditions: control MDL 72222
T5 sequence (P46098 24-478): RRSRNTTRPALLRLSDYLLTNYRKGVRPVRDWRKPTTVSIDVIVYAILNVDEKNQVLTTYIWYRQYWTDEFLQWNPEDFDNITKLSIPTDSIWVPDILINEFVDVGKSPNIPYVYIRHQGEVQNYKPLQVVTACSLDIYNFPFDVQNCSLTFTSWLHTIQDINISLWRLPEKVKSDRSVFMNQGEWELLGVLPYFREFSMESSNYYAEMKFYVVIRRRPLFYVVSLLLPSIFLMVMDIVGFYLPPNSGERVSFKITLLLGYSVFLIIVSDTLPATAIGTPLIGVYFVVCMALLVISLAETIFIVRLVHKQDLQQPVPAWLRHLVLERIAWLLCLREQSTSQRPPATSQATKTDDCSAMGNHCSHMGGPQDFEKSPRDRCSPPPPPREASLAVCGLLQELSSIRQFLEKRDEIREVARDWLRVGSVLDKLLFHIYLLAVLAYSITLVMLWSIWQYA

[8] = biological target: Sodium-dependent noradrenaline transporter, SLC6A2 (h) (Homo sapiens, UniProt P23975); conditions: ligand/control protriptyline
Sequence of Sodium-dependent noradrenaline transporter, SLC6A2 (h) (P23975 whole entry): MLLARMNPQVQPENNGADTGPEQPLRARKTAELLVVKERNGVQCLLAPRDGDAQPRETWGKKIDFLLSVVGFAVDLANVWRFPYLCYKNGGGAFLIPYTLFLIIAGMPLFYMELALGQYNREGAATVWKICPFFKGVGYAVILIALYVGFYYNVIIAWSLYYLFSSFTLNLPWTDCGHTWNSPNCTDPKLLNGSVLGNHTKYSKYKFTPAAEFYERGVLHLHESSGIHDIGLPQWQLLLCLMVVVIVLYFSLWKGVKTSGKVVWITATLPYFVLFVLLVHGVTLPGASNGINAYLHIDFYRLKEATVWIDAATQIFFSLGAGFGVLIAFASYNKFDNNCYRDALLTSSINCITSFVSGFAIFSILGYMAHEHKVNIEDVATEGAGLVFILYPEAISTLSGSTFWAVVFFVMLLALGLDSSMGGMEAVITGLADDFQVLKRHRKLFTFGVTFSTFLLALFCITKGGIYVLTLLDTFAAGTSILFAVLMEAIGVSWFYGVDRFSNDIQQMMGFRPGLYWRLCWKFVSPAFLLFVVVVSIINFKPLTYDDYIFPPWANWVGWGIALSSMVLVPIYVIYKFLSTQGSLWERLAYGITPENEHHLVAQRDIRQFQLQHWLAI

Compound | Specific binding [1] [%] | Enzymatic activity ([2]; IPP screening at 10 uM) [%] | Specific binding ([3]; IPP screening at 10 uM) [%] | Specific binding ([4]; IPP screening at 10 uM) [%] | IPP screening %, Specific binding ([5]; 10 uM) [%] | pod_cell_stress PoD (HepG2 cells; HepG2, cell stress panel PoD) [µM] | Specific binding ([6]; IPP screening at 10 uM) [%] | Specific binding ([7]; IPP screening at 10 uM) [%] | IPP screening %, Specific binding ([8]; 10 uM) [%] | Bioactivity Observations: cell stress panel (HepG2 cells) | Enzymatic activity ([2]; IPP screening at 100 uM) [%] | Specific binding ([3]; IPP screening at 100 uM) [%] | Specific binding ([4]; IPP screening at 100 uM) [%] | IPP screening %, Specific binding ([5]; 100 uM) [%] | Specific binding ([6]; IPP screening at 100 uM) [%] | Specific binding ([7]; IPP screening at 100 uM) [%] | IPP screening %, Specific binding ([8]; 100 uM) [%] | pod_cell_stress PoD (HepG2 cells) [µM]
CCOP(=S)(OCC)Oc1nc(Cl)c(Cl)cc1Cl [Chlorpyrifos, O,O-Diethyl O-(3,5,6-trichloropyridin-2-yl) phosphorothioate] | 3.1 | -10.5 | 26.0 | 55.2 | 0.5 | 0.578 | 5.4 | -1.0 | 63.4 | – | – | – | – | – | – | – | – | –
CC(C)(C)c1ccc(CCOc2ncnc3ccccc23)cc1 [Fenazaquin, 4-[2-(4-tert-Butylphenyl)ethoxy]quinazoline] | 8.2 | -0.7 | 57.0 | 60.9 | 8.6 | 0.0001306 | 35.8 | -0.1 | 69.3 | Mechanism of action is insect-specific. Cell stress panel PoD is extrapolated beyond lowest concentration for leading biomarkers which suggests the concentration range tested was not low enough. | – | – | – | – | – | – | – | –
CC1(C)O[C@@H]2[C@@H](CO[C@@]3(COS(N)(=O)=O)OC(C)(C)O[C@@H]23)O1 [Topiramate, [(3aS,5aR,8aR,8bS)-2,2,7,7-Tetramethyltetrahydro-2H,3aH,7H-bis[1,3]dioxolo[4,5-b:4',5'-d]pyran-3a-yl]methyl sulfamate (non-preferred name)] | – | – | – | – | – | 140.54 | – | – | – | – | -0.1 | 10.5 | 9.6 | -7.3 | 2.2 | -1.3 | 5.7 | –
(4S,4aR,5S,5aR,6S,12aS)-4-(Dimethylamino)-3,5,6,10,12,12a-hexahydroxy-6-methyl-1,11-dioxo-1,4,4a,5,5a,6,11,12a-octahydrotetracene-2-carboxamide--hydrogen chloride (1/1) [Oxytetracycline hydrochloride] | 0.8 | – | 25.7 | 7.8 | -8.1 | – | 6.2 | -6.5 | -8.5 | – | – | – | – | – | – | – | – | –
mixture of 2- and 3-tert-butyl-4-methoxyphenol [Butylated Hydroxyanisole] | 6.7 | 5.9 | -27.5 | 4.2 | -1.0 | – | 20.2 | 15.3 | 13.9 | – | – | – | – | – | – | – | – | 32.7666
